The values below come from US10300014B2, “Nasolacrimal drainage system implants for drug therapy” (Mati Therapeutics Inc., priority 2006, dated 2019).

The conditions of data set [1]: topical drop, drug available to the eye; cited from earlier work.
Data set [2] relates to eye. Kind of data set: sustained release doses of Bimatoprost, reduction in intraocular pressure. It is filed as in vivo. Particulars: sustained release 20 to 200 ng daily, 0.2 to 2% of the daily drop dosage. The protocol:
Commercially available solution concentrations of Bimatoprost are 0.03% by weight, often delivered once per day. Although the sustained release amount of Bimatnoprost released each day can vary, a sustained release of […] per day corresponds to about 2% of the 15 μg of Bimatoprost applied with a single drop of a 0.03% solution.

For data set [3] the following is noted: in water at 25° C.; cited from earlier work.
Data set [4] has as its system eye. Particulars: cited from earlier work.

Structures are written as SMILES. Converted amounts (≈) assume the structure as drawn.

As to `CC(C)(C)NC[C@H](O)COc1nsnc1N1CCOCC1` [Timolol], the bioavailability in data set [1] is 30-50%. With `CCNC(=O)CCC/C=C\C[C@@H]1[C@@H](/C=C/[C@@H](O)CCc2ccccc2)[C@H](O)C[C@@H]1O` [Bimatoprost], the “reduction in intraocular pressure” value with eye [2] is on record as “at least some reduction in intraocular pressure”. For the same molecule, the aqueous solubility in data set [3] was 300 µg/mL (≈ 722 µM).

`CC(C)OC(=O)CCC/C=C\C[C@@H]1[C@@H](CC[C@@H](O)CCc2ccccc2)[C@H](O)C[C@@H]1O` [Latanoprost]: the “duration of effective IOP lowering” value with eye [4] (about 200 ng of drug remaining on the eye after a Xalatan drop (2.5 μg)) is “at least 24 hours”. In addition, the “IOP reduction relative to that of the 50 μg/mL QD dose” value in the data set on eye [4] (lowest doses of 12.5 μg/mL QD or 15 μg/mL BID, eye drops) is given as 60-75%.

The term aqueous solubility denotes the concentration that dissolves in the medium under given conditions.
